Structures can show the parent of a compound that is named as a salt. Where two headings read alike, the source gives them in different places.
Key:
Type in all cases: cell-based
E. coli 257 = assay: In vitro antibacterial activity (MIC, Mueller-Hinton broth)
Protocol: (§1) Drug dilutions are prepared in Mueller-Hinton broth ranging from 128 to 0.008 μg/ml. The diluted agents are dispensed in 100 μl amounts into the wells of a 96-well tray and used immediately or frozen at -10° to -70° C. until needed. Using an automated inoculator, 1.5 μl of a 10^-2 dilution of an overnight culture is added to each well of the tray. The tops of the trays are then sealed using transparent tape and incubated overnight at 37° C. The trays are examined with the aid of a viewer. The lowest concentration at which no growth is observed is considered to be the minimum inhibitory concentration (MIC).

P. aeruginosa 503-56 = assay: In vitro antibacterial activity (MIC); settings: Pseudomonas aeruginosa, 50356, P. aeruginosa 503-56; read-out: MIC
Protocol: as §1

E. coli 48 = assay: In vitro antibacterial activity (MIC); settings: Escherichia coli, 48, E. coli 48; read-out: MIC
Protocol: as §1

P. vulgaris ATCC 6380 = assay: In vitro antibacterial activity (MIC); settings: Proteus vulgaris, ATCC6380, P. vulgaris ATCC 6380; read-out: MIC
Protocol: as §1

P. aeruginosa 5712 = assay: In vitro antibacterial activity (MIC); settings: Pseudomonas aeruginosa; P. aeruginosa 5712; read-out: MIC
Protocol: as §1

P. aeruginosa 8710 = assay: In vitro antibacterial activity (MIC); settings: Pseudomonas aeruginosa; P. aeruginosa 8710; read-out: MIC
Protocol: as §1

E. cloacae 5699 = assay: In vitro antibacterial activity (MIC); settings: Enterobacter cloacae, 5699, E. cloacae 5699; read-out: MIC
Protocol: as §1

S. schottmuelleri = assay: In vitro antibacterial activity (MIC); settings: read-out: MIC
Protocol: as §1

P. vulgaris 101 = assay: In vitro antibacterial activity (MIC); settings: Proteus vulgaris, 101, P. vulgaris 101; read-out: MIC
Protocol: as §1

E. coli 5152 = assay: In vitro antibacterial activity (MIC)
Protocol: as §1

P. aeruginosa B = assay: In vitro antibacterial activity (MIC); settings: Pseudomonas aeruginosa, read-out: MIC
Protocol: as §1

C. diversus CDC 1663-72 = assay: In vitro antibacterial activity (MIC); settings: Citrobacter koseri, CDC166372
Protocol: as §1

K. pneumoniae 35 = assay: In vitro antibacterial activity (MIC)
Protocol: as §1

K. pneumoniae 5096 = assay: In vitro antibacterial activity (MIC); settings: Klebsiella pneumoniae; K. pneumoniae 5096; read-out: MIC
Protocol: as §1

E. coli 387-1 = assay: In vitro antibacterial activity (MIC); settings: Escherichia coli, 3871, E. coli 387-1; read-out: MIC
Protocol: as §1

S. aureus Smith = assay: In vitro antibacterial activity (MIC); settings: Staphylococcus aureus, S. aureus Smith; read-out: MIC
Protocol: as §1

S. marcescens S4 = assay: In vitro antibacterial activity (MIC); settings: Serratia marcescens, S4, S. marcescens S4; read-out: MIC
Protocol: as §1

S. pyogenes 503-782 = assay: In vitro antibacterial activity (MIC); settings: Streptococcus pyogenes, 503782; S. pyogenes 503-782; read-out: MIC
Protocol: as §1

S. marcescens S147 = assay: In vitro antibacterial activity (MIC); settings: Serratia marcescens; S. marcescens S147; read-out: MIC
Protocol: as §1

P. aeruginosa 6148B = assay: In vitro antibacterial activity (MIC); settings: Pseudomonas aeruginosa, read-out: MIC
Protocol: as §1

K. pneumoniae 4964 = assay: In vitro antibacterial activity (MIC); settings: Klebsiella pneumoniae, 4964
Protocol: as §1

S. marcescens S3 = assay: In vitro antibacterial activity (MIC); settings: Serratia marcescens; S. marcescens S3; read-out: MIC
Protocol: as §1

S. marcescens S1 = assay: In vitro antibacterial activity (MIC); settings: Serratia marcescens, S1, S. marcescens S1; read-out: MIC
Protocol: as §1

E. coli 4 = assay: In vitro antibacterial activity (MIC); settings: Escherichia coli, 4, E. coli 4; read-out: MIC
Protocol: as §1

S. marcescens S714 = assay: In vitro antibacterial activity (MIC); settings: Serratia marcescens, S714, S. marcescens S714; read-out: MIC
Protocol: as §1

E. cloacae 9570A = assay: In vitro antibacterial activity (MIC); settings: Enterobacter cloacae
Protocol: as §1

C. freundii 8ASM = assay: In vitro antibacterial activity (MIC); settings: Citrobacter freundii, 8ASM
Protocol: as §1

S. pneumoniae SC = assay: In vitro antibacterial activity (MIC); settings: Streptococcus pneumoniae, read-out: MIC
Protocol: as §1

K. pneumoniae HE7 = assay: In vitro antibacterial activity (MIC); settings: Klebsiella pneumoniae; K. pneumoniae HE7; read-out: MIC
Protocol: as §1

S. marcescens 5805 = assay: In vitro antibacterial activity (MIC); settings: Serratia marcescens, 5805, S. marcescens 5805; read-out: MIC
Protocol: as §1

E. aerogenes 503-478 = assay: In vitro antibacterial activity (MIC); settings: Klebsiella aerogenes, 503478, E. aerogenes 503-478; read-out: MIC
Protocol: as §1

S. pyogenes 4 = assay: In vitro antibacterial activity (MIC); settings: Streptococcus pyogenes, 4, S. pyogenes 4; read-out: MIC
Protocol: as §1

K. pneumoniae 503-994 = assay: In vitro antibacterial activity (MIC); settings: Klebsiella pneumoniae, 503994, K. pneumoniae 503-994; read-out: MIC
Protocol: as §1

E. cloacae 214 = assay: In vitro antibacterial activity (MIC); settings: Enterobacter cloacae, 214, E. cloacae 214; read-out: MIC
Protocol: as §1

S. typhi P58A = assay: In vitro antibacterial activity (MIC); settings: Salmonella enterica, TYPHI
Protocol: as §1

P. mirabilis 503-1136 = assay: In vitro antibacterial activity (MIC); settings: Proteus mirabilis, 5031136, P. mirabilis 503-1136; read-out: MIC
Protocol: as §1

E. cloacae 9295 = assay: In vitro antibacterial activity (MIC); settings: Enterobacter cloacae, 9295, E. cloacae 9295; read-out: MIC
Protocol: as §1

E. cloacae 24 = assay: In vitro antibacterial activity (MIC); settings: Enterobacter cloacae, 24, E. cloacae 24; read-out: MIC
Protocol: as §1

S. pneumoniae 6302 = assay: In vitro antibacterial activity (MIC); settings: Streptococcus pneumoniae, 6302, S. pneumoniae 6302; read-out: MIC
Protocol: as §1

S. pneumoniae 6301 = assay: In vitro antibacterial activity (MIC); settings: Streptococcus pneumoniae, 6301, S. pneumoniae 6301; read-out: MIC
Protocol: as §1

C. freundii CDC6 = assay: In vitro antibacterial activity (MIC); settings: Citrobacter freundii, CDC6, C. freundii CDC6; read-out: MIC
Protocol: as §1

E. aerogenes 83 = assay: In vitro antibacterial activity (MIC)
Protocol: as §1

P. aeruginosa POW 151 = assay: In vitro antibacterial activity (MIC); settings: Pseudomonas aeruginosa, POW151
Protocol: as §1

P. mirabilis 2 = assay: In vitro antibacterial activity (MIC)
Protocol: as §1

## Cc1nccn1CCCC1CCN(C=N[C@@H]2C(=O)N3[C@@H]2SC(C)(C)[C@@H]3C(=O)O)CC1 [F, [2S-(2alpha,5alpha,6beta)]-3,3-dimethyl-6-[[[4-[3-(2-methyl-1H-imidazol-1-yl)propyl]-1-piperidinyl]methylene]amino]-7-oxo-4-thia-1-azabicyclo[3.2.0]heptane-2-carboxylic acid 1.15 molar hydrochloride 1.75 molar hydrate]
E. coli 257; Escherichia coli, 257, E. coli 257, read-out: MIC
  MIC: 0.125 µg/mL
P. aeruginosa 503-56
  MIC: > 128 µg/mL
E. coli 48
  MIC: 0.062 µg/mL
P. vulgaris ATCC 6380
  MIC: 0.25 µg/mL
P. aeruginosa 5712
  MIC: > 128 µg/mL
P. aeruginosa 8710
  MIC: > 128 µg/mL
E. cloacae 5699
  MIC: 0.25 µg/mL
S. schottmuelleri
  MIC: 0.062 µg/mL
P. vulgaris 101
  MIC: 16 µg/mL
E. coli 5152; Escherichia coli, 5152, E. coli 5152, read-out: MIC
  MIC: 8 µg/mL
P. aeruginosa B
  MIC: 0.25 µg/mL
C. diversus CDC 1663-72; C. diversus CDC 1663-72, read-out: MIC
  MIC: 0.062 µg/mL
K. pneumoniae 35; Klebsiella pneumoniae, K. pneumoniae 35, read-out: MIC
  MIC: 0.125 µg/mL
K. pneumoniae 5096
  MIC: 64 µg/mL
E. coli 387-1
  MIC: 0.125 µg/mL
S. aureus Smith
  MIC: 8 µg/mL
S. marcescens S4
  MIC: 2 µg/mL
S. pyogenes 503-782
  MIC: 128 µg/mL
S. marcescens S147
  MIC: 0.25 µg/mL
P. aeruginosa 6148B
  MIC: > 128 µg/mL
K. pneumoniae 4964
  MIC: 32 µg/mL
S. marcescens S3
  MIC: 0.25 µg/mL
S. marcescens S1
  MIC: 0.5 µg/mL
E. coli 4
  MIC: 0.062 µg/mL
S. marcescens S714
  MIC: 1 µg/mL
E. cloacae 9570A; 9570A
  MIC: 0.25 µg/mL
C. freundii 8ASM; C. freundii 8ASM, read-out: MIC
  MIC: 0.062 µg/mL
S. pneumoniae SC
  MIC: 1 µg/mL
K. pneumoniae HE7
  MIC: > 128 µg/mL
S. marcescens 5805
  MIC: 0.5 µg/mL
E. aerogenes 503-478
  MIC: 4 µg/mL
S. pyogenes 4
  MIC: 0.5 µg/mL
K. pneumoniae 503-994
  MIC: 2 µg/mL
E. cloacae 214
  MIC: 0.125 µg/mL
S. typhi P58A
  MIC: 0.062 µg/mL
P. mirabilis 503-1136
  MIC: 8 µg/mL
E. cloacae 9295
  MIC: 0.25 µg/mL
E. cloacae 24
  MIC: 0.25 µg/mL
S. pneumoniae 6302
  MIC: 2 µg/mL
S. pneumoniae 6301
  MIC: 1 µg/mL
C. freundii CDC6
  MIC: 0.062 µg/mL
E. aerogenes 83; Klebsiella aerogenes, 83
  MIC: 16 µg/mL
P. aeruginosa POW 151
  MIC: > 128 µg/mL
P. mirabilis 2; Proteus mirabilis, 2
  MIC: 0.5 µg/mL

## CCc1nc(C)cn1CCCC1CCN(C=N[C@@H]2C(=O)N3[C@@H]2SC(C)(C)[C@@H]3C(=O)O)CC1 [G, [2S-(2alpha,5alpha,6beta)]-6-[[[4-[3-(2-ethyl-4methyl-1H-imidazol-1-yl)propyl]piperidinyl]methylene]amino]-3,3-dimethyl-7-oxo-4-thia-1-azabicyclo[3.2.0]heptane-2-carboxylic acid hydrochloride]
E. coli 257; Escherichia coli, 257
  MIC: 0.25 µg/mL
P. aeruginosa 503-56
  MIC: > 128 µg/mL
E. coli 48
  MIC: 0.062 µg/mL
P. vulgaris ATCC 6380
  MIC: 0.25 µg/mL
P. aeruginosa 5712
  MIC: > 128 µg/mL
P. aeruginosa 8710
  MIC: > 128 µg/mL
E. cloacae 5699
  MIC: 0.5 µg/mL
S. schottmuelleri
  MIC: 0.125 µg/mL
P. vulgaris 101
  MIC: 16 µg/mL
E. coli 5152; Escherichia coli, 5152
  MIC: 16 µg/mL
P. aeruginosa B
  MIC: 0.25 µg/mL
C. diversus CDC 1663-72
  MIC: 0.125 µg/mL
K. pneumoniae 35; Klebsiella pneumoniae, 35, K. pneumoniae 35
  MIC: 0.5 µg/mL
K. pneumoniae 5096
  MIC: 128 µg/mL
E. coli 387-1
  MIC: 0.25 µg/mL
S. aureus Smith
  MIC: 8 µg/mL
S. marcescens S4
  MIC: 2 µg/mL
S. pyogenes 503-782
  MIC: 128 µg/mL
S. marcescens S147
  MIC: 1 µg/mL
P. aeruginosa 6148B
  MIC: > 128 µg/mL
K. pneumoniae 4964
  MIC: 2 µg/mL
S. marcescens S3
  MIC: 1 µg/mL
S. marcescens S1
  MIC: 1 µg/mL
E. coli 4
  MIC: 0.25 µg/mL
S. marcescens S714
  MIC: 8 µg/mL
E. cloacae 9570A; read-out: MIC
  MIC: 0.5 µg/mL
C. freundii 8ASM
  MIC: 0.125 µg/mL
S. pneumoniae SC
  MIC: 1 µg/mL
K. pneumoniae HE7
  MIC: > 128 µg/mL
S. marcescens 5805
  MIC: 4 µg/mL
E. aerogenes 503-478
  MIC: 8 µg/mL
S. pyogenes 4
  MIC: 1 µg/mL
K. pneumoniae 503-994
  MIC: 0.25 µg/mL
E. cloacae 214
  MIC: 0.25 µg/mL
S. typhi P58A
  MIC: 0.25 µg/mL
P. mirabilis 503-1136
  MIC: 16 µg/mL
E. cloacae 9295
  MIC: 0.5 µg/mL
E. cloacae 24
  MIC: 0.5 µg/mL
S. pneumoniae 6302
  MIC: 2 µg/mL
S. pneumoniae 6301
  MIC: 1 µg/mL
C. freundii CDC6
  MIC: 0.25 µg/mL
E. aerogenes 83; Klebsiella aerogenes, 83, E. aerogenes 83, read-out: MIC
  MIC: 0.5 µg/mL
P. aeruginosa POW 151
  MIC: > 128 µg/mL
P. mirabilis 2; Proteus mirabilis, 2, P. mirabilis 2, read-out: MIC
  MIC: 1 µg/mL

Reference: US4605744A, “Imidazole derivatives” (Hoffmann-La Roche Inc., priority 1985, dated 1986)
